Experiments:
Details in all cases: substrate 3KB-G5-CNP, hydrolysis
[1] = target: T1, Saccharomycopsis fibuligera α-amylase (Sfamy), wild type (Saccharomycopsis fibuligera, UniProt P21567)
T1 sequence (P21567 27-494): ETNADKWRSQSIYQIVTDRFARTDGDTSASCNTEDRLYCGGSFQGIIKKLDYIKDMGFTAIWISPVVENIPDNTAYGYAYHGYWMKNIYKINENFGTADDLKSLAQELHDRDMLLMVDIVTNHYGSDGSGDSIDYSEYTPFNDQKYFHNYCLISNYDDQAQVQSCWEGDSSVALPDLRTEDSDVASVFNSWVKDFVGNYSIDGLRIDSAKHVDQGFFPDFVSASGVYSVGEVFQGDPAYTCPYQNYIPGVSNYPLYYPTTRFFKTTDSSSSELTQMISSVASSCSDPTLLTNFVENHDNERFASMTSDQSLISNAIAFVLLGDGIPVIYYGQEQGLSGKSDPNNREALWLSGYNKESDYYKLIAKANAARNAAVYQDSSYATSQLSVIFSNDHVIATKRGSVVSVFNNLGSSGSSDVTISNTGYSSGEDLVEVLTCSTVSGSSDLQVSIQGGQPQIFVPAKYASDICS
Experimental: (§1) Furthermore, using a substrate with both its non-reducing end terminus and its reducing end terminus modified, i.e. 3KB-G5 -CNP (chloronitrophenyl maltopentaose wherein the hydroxyl group at position 3 of the glucose residue at the non-reducing end terminus is ketobutylated; manufactured by Ono Pharmaceutical Company), the hydrolysis activities of the wild-type enzyme and the variant-type enzymes were determined. 3KB-G5 -CNP cannot function as a substrate for transglycosylation reaction because of the modification of both of the termini, and therefore, only the hydrolysis activity can be assayed.

[2] = target: Saccharomycopsis fibuligera α-amylase (Sfamy) variant SfamyY83F, Y83F, SEQ ID NO: 2 (Saccharomycopsis fibuligera, UniProt P21567, A249P/Y109F)
Experimental: as §1

[3] = target: Saccharomycopsis fibuligera α-amylase (Sfamy) variant SfamyY83W, Y83W, SEQ ID NO: 4 (Saccharomycopsis fibuligera, UniProt P21567, Y109W)
Experimental: as §1

[4] = target: Saccharomycopsis fibuligera α-amylase (Sfamy) variant SfamyY83L, Y83L, SEQ ID NO: 6 (Saccharomycopsis fibuligera, UniProt P21567, Y109L)
Experimental: as §1

[5] = target: Saccharomycopsis fibuligera α-amylase (Sfamy) variant SfamyY83N, Y83N, SEQ ID NO: 8 (Saccharomycopsis fibuligera, UniProt P21567, Y109N)
Sequence of Saccharomycopsis fibuligera α-amylase (Sfamy) variant SfamyY83N, Y83N, SEQ ID NO: 8 (P21567 27-494 Y109N): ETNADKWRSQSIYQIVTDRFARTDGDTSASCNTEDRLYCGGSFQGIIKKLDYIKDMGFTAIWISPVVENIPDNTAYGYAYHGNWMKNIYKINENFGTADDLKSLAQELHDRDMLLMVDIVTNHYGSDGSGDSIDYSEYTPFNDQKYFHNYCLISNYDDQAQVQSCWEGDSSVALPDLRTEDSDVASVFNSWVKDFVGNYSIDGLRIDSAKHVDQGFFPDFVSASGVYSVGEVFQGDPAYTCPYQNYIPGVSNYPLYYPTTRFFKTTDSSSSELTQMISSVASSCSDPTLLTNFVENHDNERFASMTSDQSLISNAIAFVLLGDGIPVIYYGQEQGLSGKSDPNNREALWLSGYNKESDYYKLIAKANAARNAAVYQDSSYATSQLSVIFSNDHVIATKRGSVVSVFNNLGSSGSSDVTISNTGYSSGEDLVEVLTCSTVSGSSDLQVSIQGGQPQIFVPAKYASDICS
Experimental: as §1

Sequence of Saccharomycopsis fibuligera α-amylase (Sfamy) variant SfamyY83L, Y83L, SEQ ID NO: 6 (P21567 27-494 Y109L): as the sequence (P21567 27-494 Y109N) above, with N83L counted along it
Sequence of Saccharomycopsis fibuligera α-amylase (Sfamy) variant SfamyY83F, Y83F, SEQ ID NO: 2 (P21567 27-494 Y109F/A249P): as the sequence (P21567 27-494 Y109N) above, with N83F, A223P counted along it
Sequence of Saccharomycopsis fibuligera α-amylase (Sfamy) variant SfamyY83W, Y83W, SEQ ID NO: 4 (P21567 27-494 Y109W): as the sequence (P21567 27-494 Y109N) above, with N83W counted along it

CC(=O)CC1OC[C@H]2O[C@H](O[C@H]3[C@H](O)[C@@H](O)[C@@H](O[C@H]4[C@H](O)[C@@H](O)[C@@H](O[C@H]5[C@H](O)[C@@H](O)[C@@H](O[C@H]6[C@H](O)[C@@H](O)[C@H](Oc7ccc([N+](=O)[O-])cc7Cl)O[C@@H]6CO)O[C@@H]5CO)O[C@@H]4CO)O[C@@H]3CO)[C@H](O)[C@@H](O)[C@@H]2O1 (stereo partly drawn) [3KB-G5 -CNP]
Km [1]: 60 µM
kcat [1]: 15.3 s⁻¹
kcat/Km [1]: 250000 M⁻¹ s⁻¹
Km [2]: 130 µM
kcat [2]: 2.5 s⁻¹
kcat/Km [2]: 20000 M⁻¹ s⁻¹
Km [3]: 150 µM
kcat [3]: 2.17 s⁻¹
kcat/Km [3]: 14500 M⁻¹ s⁻¹
Km [4]: 120 µM
kcat [4]: 0.183 s⁻¹
kcat/Km [4]: 1550 M⁻¹ s⁻¹
Km [5]: 190 µM
kcat [5]: 0.267 s⁻¹
kcat/Km [5]: 1430 M⁻¹ s⁻¹

Source: US5538882A, “Variant-type carbohydrate hydrolase, variant gene of the enzyme and method for producing oligosaccharide using the enzyme” (priority 1993, dated 1996)
